Converted amounts (≈) assume the structure as drawn. Where two headings read alike, the source gives them in different places.

Test [1] relates to Aspergillus fumigatus ATCC 28214. Kind of test: In vitro antifungal MIC, microtiter broth dilution. The conditions noted are these: Aspergillus fumigatus, ATCC28214, 24 h, read-out: MIC values, A. fumigatus, 30°, 24 hours. In general terms: Dilution methods test growth across graded concentrations, often in twofold steps.
The next test deals with Venturia inaequalis. The experiment in a line: Example A apple scab. Format: in vivo. Conditions: read-out: disease control rating, Ex. A. The method in brief: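 First, compounds are taken up in acetone amounting to 6% of the final volume. Next, they are suspended in purified water with 250 ppm TREM 014 at 100 or 20 ppm. Finally, seedlings of apple are sprayed until run-off.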

The subject of a further test is Pythium aphanadermatum. Kind of test: Example J cucumber damping off. Format: in vivo. The conditions noted are these: Pythium, 336 h; 5 kg/ha; read-out: disease control rating, Ex. J. In a few lines:
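Seeds and soil were inoculated with a mix of sand, cereal and Pythium aphanadermatum mycelium, the fungus responsible for cucumber damping off. They were kept in a growth chamber at 30° C. for 14 days, and disease was then rated to assess control.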

Test [2] deals with Rhizoctonia solani. The experiment in a line: Example F rice sheath blight. Format: in vivo. The conditions noted are these: Rhizoctonia solani, 144 h, read-out: disease control rating, Ex. F. In a few lines: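 Application rates were 100 or 20 ppm, delivered as a foliar spray to the point of run-off on rice seedlings. The formulation used 6% acetone in water with 250 ppm surfactant.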

In test [3] the test system is Candida albicans ATCC 11651. Kind of test: In vivo systemic Candida infection in mice, primary assay. Set-up: species or system Candida albicans; CF-1 female mice. The conditions noted are these: Candida albicans, 150 mg/kg per day, read-out: % Survival. The method in brief: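 CF-1 female mice (20 g, 10 per group) were infected IV with 0.2 ml of 1×10^7/ml C. albicans ATCC 11651, then given test compound subcutaneously at 50 or 150 mg/kg/day at 1 and 6 h post-infection and once daily for three more days. Survival was followed for 21 days against infected untreated mice; ≥70% protection at 14 days was scored active.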

The subject of test [4] is Cercosporidium personatum. Kind of test: Example B Peanut Late Leafspot. Conditions: Nothopassalora personata, read-out: disease control rating, Ex. B. Format: in vivo. The method in brief:
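Dose 100 or 20 ppm; vehicle acetone 6% v/v final in water + 250 ppm surfactant; applied by spraying peanut seedlings to run-off.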

For the next test, the system named is Plasmorpara viticola. Kind of test: Example I grape downy mildew. Format: in vivo. Conditions: read-out: disease control rating, Ex. I. In a few lines:
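First, each compound is taken up in acetone amounting to 6% of the final volume. It is then suspended in purified water containing 250 ppm of the polyhydric alcohol ester surfactant TREM 014, at 100 or 20 ppm. Finally, the suspension is sprayed onto grape seedlings until run-off.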

Test [5] concerns Rhizoctonia solani. Kind of test: Example K cotton blight. The conditions noted are these: 336 h, 5 kg/ha, read-out: disease control rating, Ex. K. Format: in vivo. As for the experimental part:
[…] Seeds and soil were then inoculated with a mixture of sand, cereal and mycelium of the fungus Rhizoctonia solani, causal agent of cotton blight, and incubated in a growth chamber at 30° C. for 14 days. Disease ratings were then made.

In another test the test system is Phytophthora infestans. The experiment in a line: whole plant or invertebrate. Format: in vivo. Conditions: Phytophthora infestans, in Solanum lycopersicum, read-out: disease control rating, Ex. H, 100 PPM.
Another test concerns Pyricularia oryzae. Kind of test: whole plant or invertebrate. Format: in vivo. The conditions noted are these: Pyricularia oryzae, 120 h; for pest or weed control at 100 ppm: read-out: disease control rating, Ex. E, 100 PPM.
The subject of test [6] is Fusarium oxysporum f. sp. cucumerinum. Kind of test: Example L cucumber wilt. Format: in vivo. The conditions noted are these: 336 h, 5 kg/ha, read-out: disease control rating, Ex. L. As for the experimental part:
[…] Seeds and soil were then inoculated with a mixture of sand, cereal and mycelium of the fungus Fusarium oxysporum f. sp. cucumerinum, causal agent of cucumber wilt, and incubated in a growth chamber at 30° C. for 14 days. Disease ratings were then made.

Another test concerns Puccinia recondita. The experiment in a line: Example G wheat leaf rust. The conditions noted are these: read-out: disease control rating, Ex. G. Format: in vivo.
Test [7] concerns Candida albicans ATCC 11651. The experiment in a line: In vitro antifungal MIC, microtiter broth dilution. Conditions: Candida albicans, ATCC11651, 24 h, read-out: MIC values, C. albicans, 30°, 24 hours.
The test system of another test is Botrytis cinerea. The experiment in a line: Example C bean grey mold. Format: in vivo. The conditions noted are these: Botrytis cinerea, 24 h, read-out: disease control rating, Ex. C. The method in brief:
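At 20 or 100 ppm, each compound was applied as an aqueous suspension (acetone 6% final; TREM 014 250 ppm) sprayed onto young broad bean plants to the point of run-off.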

Test [8] deals with Erysiphe graminis f. sp. tritici. Kind of test: Example D wheat powdery mildew. Format: in vivo. The conditions noted are these: Blumeria graminis, 144 h, read-out: disease control rating, Ex. D. In a few lines: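 First, compound taken up in acetone, 6% of the end volume. Next, suspended in water with 250 ppm polyhydric alcohol esters at 100 or 20 ppm. Last, applied to wheat seedlings until run-off.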

For the next test, the system named is Sclerotium rolfsii. The experiment in a line: Example M southern blight. Conditions: Agroathelia rolfsii, 336 h; 5 kg/ha; read-out: disease control rating, Ex. M. Format: in vivo. As for the experimental part: […] Seeds and soil were then inoculated with a mixture of sand, cereal and mycelium of the fungus Sclerotium rolfsii, causal agent of sourthern blight, and incubated in a growth chamber at 30° C. for 14 days. Disease ratings were then made.

In general, MIC refers to the lowest concentration that inhibits growth of the organism. As for `C=C(c1cccc(Cl)c1)C(O)(Cn1cncn1)c1ccc(Cl)c(Cl)c1` (centres unmarked) [Example 905], the MIC in test [1] came out at 100 µg/mL (≈ 253 µM); in [7] it was 0.04 µg/mL (≈ 0.101 µM). Also, the pest or weed control at 20 ppm in the test on Venturia inaequalis (20 PPM) turned out to be 7%; with Rhizoctonia solani [2] (20 PPM), 0%; in test [4] (20 PPM) it was 0%; in the test with Pyricularia oryzae (read-out: disease control rating, Ex. E, 20 PPM), 0%; in the test on Puccinia recondita (20 PPM), 16%; in the test with Botrytis cinerea (20 PPM), 15%. Moreover, the pest or weed control at 20 ppm in [8] (20 PPM) turned out to be 47%. The pest or weed control at 5000 g/ha (in the test on Pythium aphanadermatum; with Rhizoctonia solani [5]; in test [6]; in the test on Sclerotium rolfsii) was 0% each time. Moreover, the pest or weed control at 100 ppm was determined as 37% with Rhizoctonia solani [2]; 87% with Plasmorpara viticola; 0% with Phytophthora infestans; 0% in the test with Pyricularia oryzae; 19% in the test with Botrytis cinerea. Moreover, the responders at 150 mg/kg came to 80% in test [3] (ATCC11651, 168 h, day 7); 50% in [3] (ATCC11651, 336 h, day 14); 20% in test [3] (ATCC11651, 504 h, day 21).
`C=C(c1ccc(F)cc1)C(O)(Cn1ncnc1S)c1ccccc1F` (centres unmarked) [Example 1300]: the minimal inhibitory concentration (MIC) is 6.3 µg/mL (≈ 17.5 µM) in [1] and no more than 0.4 µg/mL in [7]. In addition, the pest or weed control at 100 ppm is 100% with Venturia inaequalis; 81% in the test with Rhizoctonia solani [2]; 100% in test [4]; 0% with Plasmorpara viticola; 0% in the test on Phytophthora infestans; 58% in the test with Pyricularia oryzae. The pest or weed control at 100 ppm is 100% in the test with Puccinia recondita, 93% in the test with Botrytis cinerea and 92% in test [8]. For the same compound, the pest or weed control at 5000 g/ha (in the test with Pythium aphanadermatum; in the test with Rhizoctonia solani [5]; in test [6]; in the test on Sclerotium rolfsii) was 0% each time.
As to `C=C(c1ccccc1)C(O)(Cn1cncn1)c1ccccc1F` (centres unmarked) [Example 594], the minimum inhibitory concentration (MIC) in test [1] and in test [7] was 0.8 µg/mL (≈ 2.59 µM) each time. Moreover, the pest or weed control at 100 ppm with Venturia inaequalis is 86%; in [4] it was 100%; in the test on Plasmorpara viticola, 79%; in the test with Phytophthora infestans it was 0%; in the test with Pyricularia oryzae it was 2%; in the test with Puccinia recondita, 100%. In addition, the pest or weed control at 100 ppm in the test with Botrytis cinerea was found to be 93%; in [8] it was 77%. Further, the pest or weed control at 5000 g/ha with Pythium aphanadermatum worked out at 0%; in the test on Rhizoctonia solani [5] it was 60%; in [6], 100%; in the test with Sclerotium rolfsii it was 50%. Also, the responders at 150 mg/kg in test [3] (ATCC11651, 168 h, day 7) turned out to be 70%; in [3] (ATCC11651, 336 h, day 14) it was 10%; in [3] (ATCC11651, 504 h, day 21) it was 0%.
Consider `C=C(c1ccccc1)C(O)(Cn1ncnc1SCCCC)c1ccc(F)cc1` (centres unmarked) [Example 1459], for which the minimal inhibitory concentration (MIC) in test [1] and in test [7] was greater than 100 µg/mL in each case. Also, the pest or weed control at 100 ppm amounted to 72% in the test on Venturia inaequalis; 0% with Rhizoctonia solani [2]; 70% in test [4]; 74% in the test with Plasmorpara viticola; 0% in the test with Phytophthora infestans; 17% with Pyricularia oryzae. For the same compound, the pest or weed control at 100 ppm in the test with Puccinia recondita stood at 65%; in the test on Botrytis cinerea it was 65%; in test [8] it was 31%. Also, the pest or weed control at 5000 g/ha (in the test on Pythium aphanadermatum; with Rhizoctonia solani [5]; in test [6]; with Sclerotium rolfsii) was 0% in each case.
Regarding `C=C(c1ccc(F)cc1)C(O)(Cn1ncnc1SCC#N)c1ccccc1F` (centres unmarked) [Example 1451], the MIC in test [1] and in test [7] was greater than 100 µg/mL throughout. Moreover, the pest or weed control at 100 ppm in the test with Venturia inaequalis stood at 86%; in test [4], 84%; with Plasmorpara viticola, 79%; with Phytophthora infestans, 0%; in the test on Pyricularia oryzae, 2%; in the test with Puccinia recondita it was 93%. The figures for the pest or weed control at 100 ppm (in the test with Botrytis cinerea; in test [8]) were 48% and 77%, respectively. Moreover, the pest or weed control at 5000 g/ha (with Pythium aphanadermatum; in the test with Rhizoctonia solani [5]; in test [6]; with Sclerotium rolfsii) was 0% in each case.
Consider `C=C(c1ccccc1)C(O)(Cn1cncn1)c1ccc(F)c(Cl)c1` (centres unmarked) [Example 605], for which the minimal inhibitory concentration (MIC) in test [1] came to 100 µg/mL (≈ 291 µM); in [7], 0.2 µg/mL (≈ 0.582 µM). The pest or weed control at 100 ppm in the test on Venturia inaequalis turned out to be 70%; in test [4], 99%; with Plasmorpara viticola, 0%; in the test with Phytophthora infestans it was 0%; in the test with Pyricularia oryzae, 0%; in the test with Puccinia recondita it was 100%. Also, the pest or weed control at 100 ppm in the test on Botrytis cinerea is 32%; in test [8], 81%. Also, the pest or weed control at 5000 g/ha (in the test on Pythium aphanadermatum; in the test on Rhizoctonia solani [5]; in test [6]; with Sclerotium rolfsii) was 0% in each case.
Consider `C=C(c1ccccc1)C(O)(Cn1cncn1)c1cc(Cl)cc(Cl)c1` (centres unmarked) [Example 603], for which the results for the minimal inhibitory concentration (MIC) in test [1] and in test [7] were greater than 100 µg/mL and 0.1 µg/mL (≈ 0.278 µM), respectively. The pest or weed control at 100 ppm came to 44% with Venturia inaequalis; 97% in test [4]; 0% in the test on Plasmorpara viticola; 0% with Phytophthora infestans; 0% in the test with Pyricularia oryzae; 95% in the test with Puccinia recondita. The values for the pest or weed control at 100 ppm (with Botrytis cinerea; in [8]) were 91% and 69%, respectively. Besides, the pest or weed control at 5000 g/ha (in the test with Pythium aphanadermatum; in the test on Rhizoctonia solani [5]; in [6]; with Sclerotium rolfsii) was 0% throughout. Also, the responders at 150 mg/kg in test [3] (ATCC11651, 168 h, day 7) was found to be 10%; in [3] (ATCC11651, 336 h, day 14) it was 0%; in test [3] (ATCC11651, 504 h, day 21), 0%.

(Values after patent US4965280A, “Antifungal carbinols” (E. I. Du Pont de Nemours and Company, priority 1989, dated 1990).)
